These are literature values, as cited in US10073089B2 (priority 2011, dated 2018).

For this data set, the system named is torpedo electrocyte membranes. The note with it: read-out: Sensitivity (concentration in nM).

13-desmethyl spirolide C [13-SPX C]: the IC50 was 108 nM.

For the substance gymnodimine A [GYM A], the IC50 is 391 nM.
